Experimental data taken from ChEMBL document CHEMBL1147234, “Bioassay-guided isolation of epiquinamide, a novel quinolizidine alkaloid and nicotinic agonist from an Ecuadoran poison frog, Epipedobates tricolor” (J Nat Prod, 2003).

Columns and labels:
Type in all cases: functional
[1] = target: Neuronal acetylcholine receptor; alpha3/beta4 (Homo sapiens) (UniProt P30926+P32297); assay: Agonist activity at human nicotinic alpha3beta4 receptor expressed in human IMR32 cells at 50 uM by cell based membrane potential assay relative to (+/-)-epibatidine; settings: IMR-32
[2] = target: Neuronal acetylcholine receptor; alpha4/beta2 (Homo sapiens) (UniProt P17787+P43681); assay: Agonist activity at human nicotinic alpha4beta2 receptor expressed in human K177 cells at 50 uM by cell based membrane potential assay relative to (+/-)-epibatidine
[3] = target: Acetylcholine receptor; alpha1/beta1/delta/gamma (Homo sapiens) (UniProt P02708+P07510+P11230+Q07001); assay: Agonist activity at human nicotinic alpha-1-beta-1-gamma-delta receptor expressed in human TE-671 cells at 50 uM by cell based membrane potential assay relative to (+/-)-epibatidine
[4] = target: Neuronal acetylcholine receptor; alpha3/beta2 (Homo sapiens) (UniProt P17787+P32297); assay: Agonist activity at human nicotinic alpha3beta2 receptor expressed in human SH-SY5Y cells at 50 uM by cell based membrane potential assay relative to (+/-)-epibatidine
[5] = target: Neuronal acetylcholine receptor; alpha3/beta4 (Rattus norvegicus) (UniProt P04757+P12392); assay: Agonist activity at rat nicotinic alpha3beta4 receptor expressed in human KXalpha-3-beta-4R2 cells at 50 uM by cell based membrane potential assay relative to (+/-)-epibatidine

## CC(=O)N[C@@H]1CCCN2CCCC[C@H]12 (relative stereo)
[1]
  Activity: 15%
[2]
  Activity: 58%
[3]
  Activity: 8%
[4]
  Activity: 51%
[5]
  Activity: 23%
